Assay results from US11840686B2, “Modulation of prekallikrein (PKK) expression” (Ionis Pharmaceuticals, Inc., priority 2013, dated 2023).
Strand notation (5' to 3'): a small letter for the sugar, then the base; units joined by * are phosphorothioate-linked, units joined directly phosphodiester-linked; [ ] holds rarer units or linkages, { } end groups; capitals alone tell only the bases. e = 2'-O-(2-methoxyethyl) (MOE); k = constrained ethyl (cEt); [5mC] = 5-methylcytosine; d = 2'-deoxy (DNA)

Tested on: human PKK mRNA
Assay: Antisense inhibition of human PKK mRNA in HepaRG cells, 1,000 nM, MOE/deoxy/cEt oligonucleotides (Example 3)
Type: cell-based
Settings: HepaRG cells, 1,000 nM antisense oligonucleotide, Table 29
Summary of the method: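 Readout is percent PKK mRNA reduction against untreated controls, by real-time PCR (RTS3454) adjusted for total RNA via RIBOGREEN. Oligonucleotides, phosphorothioate gapmers of 16 nucleosides with cEt, MOE and deoxy sugars, were delivered at 1,000 nM by electroporation to 20,000 HepaRG cells/well for roughly 24 h.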

Substance | % inhibition [%]
548601 (eT*eT*kG*dG*dT*dG*dG*dT*dG*dG*dG*dA*dT*kT*kG*eG; antisense) [compound 548601] | 18
548551 (antisense e[5mC]*eG*kG*d[5mC]*d[5mC]*dA*dA*dT*dG*dG*dG*dA*dA*kA*kG*eG) [compound 548551] | 25
548577 (eA*eA*kT*d[5mC]*dT*dG*d[5mC]*dA*d[5mC]*d[5mC]*dT*dG*dG*k[5mC]*kA*eG; antisense) [compound 548577] | 42
548580 (e[5mC]*e[5mC]*kA*dG*dA*dG*d[5mC]*d[5mC]*dT*dT*dG*dA*dT*k[5mC]*kA*eG; antisense) [compound 548580] | 36
548541 (antisense eG*eG*k[5mC]*dA*d[5mC]*dT*dG*dG*dT*d[5mC]*dA*dT*dG*kG*kA*e[5mC]) [compound 548541] | 39

Same assay, conditions: HepaRG cells, electroporation with 1,000 nM antisense oligonucleotide, approx. 24 hours, PKK mRNA by RT-PCR (RTS3454), relative to untreated control cells; Table 25 experiment

Substance | % inhibition [%]
548209 (e[5mC]*eA*kA*dT*d[5mC]*dT*d[5mC]*dT*dG*dG*dT*d[5mC]*dA*kA*kT*e[5mC]; antisense) [compound 548209] | 57
548219 (eG*eA*kA*dA*dT*d[5mC]*d[5mC]*dT*dG*dT*dG*d[5mC]*dA*kT*kA*eG; antisense) [compound 548219] | 8

Same assay, conditions: HepaRG cells, electroporation with 1,000 nM antisense oligonucleotide, approx. 24 hours, PKK mRNA by RT-PCR (RTS3454), relative to untreated control cells; Table 26 experiment

Substance | % inhibition [%]
548266 (antisense eT*eT*kG*dG*d[5mC]*d[5mC]*dA*dA*d[5mC]*dT*d[5mC]*dT*dG*kT*kG*eG) [compound 548266] | 44
548235 (eT*e[5mC]*kT*dA*dG*dA*dT*dG*dA*d[5mC]*d[5mC]*dT*dG*kA*kA*eG; antisense) [compound 548235] | 0
548232 (eG*e[5mC]*k[5mC]*dA*dT*dA*d[5mC]*dA*dT*d[5mC]*dT*dG*dA*kG*kG*eA; antisense) [compound 548232] | 3
548241 (e[5mC]*eA*kT*dA*d[5mC]*dT*d[5mC]*dG*d[5mC]*d[5mC]*dT*dT*dT*kG*kT*eG; antisense) [compound 548241] | 1

Same assay, conditions: HepaRG cells, electroporation with 1,000 nM antisense oligonucleotide, approximately 24 hours, primer probe set RTS3454, relative to untreated control cells; experiment of Table 23

Substance | % inhibition [%]
547972 (antisense eT*e[5mC]*kA*dA*d[5mC]*dT*d[5mC]*d[5mC]*d[5mC]*dG*dG*dG*dT*kA*kA*eA) [compound 547972] | 49
547920 (eG*eA*kG*dA*dA*d[5mC]*d[5mC]*d[5mC]*dT*dG*dG*d[5mC]*dA*kA*k[5mC]*eA; antisense) [compound 547920] | 52
547990 (antisense eA*e[5mC]*kT*dG*dA*d[5mC]*dA*dG*d[5mC]*dG*dA*dA*dT*k[5mC]*kA*eT) [compound 547990] | 58

Same assay, conditions: HepaRG cells, electroporation with 1,000 nM antisense oligonucleotide, approximately 24 hours, primer probe set RTS3454, relative to untreated control cells; experiment of Table 24

Substance | % inhibition [%]
548073 (e[5mC]*eT*kT*dT*d[5mC]*dT*d[5mC]*d[5mC]*dT*dT*d[5mC]*dG*dA*kG*kA*eA; antisense) [compound 548073] | 24
548016 (eA*eA*kG*dA*dG*dT*dT*dT*dG*dT*dT*d[5mC]*d[5mC]*kT*k[5mC]*e[5mC]; antisense) [compound 548016] | 55
548072 (eT*eT*kT*d[5mC]*dT*d[5mC]*d[5mC]*dT*dT*d[5mC]*dG*dA*dG*kA*kA*eG; antisense) [compound 548072] | 33
548062 (eA*eT*kA*dA*dA*dT*dT*dG*dT*dG*d[5mC]*dT*dT*kG*kT*eG; antisense) [compound 548062] | 19
548038 (eT*eA*kA*dT*dG*dT*d[5mC]*dT*dG*dA*d[5mC]*dA*dG*kA*kT*eT; antisense) [compound 548038] | 67
548071 (eA*eG*kA*dA*dG*d[5mC]*d[5mC]*d[5mC]*d[5mC]*dA*dT*d[5mC]*d[5mC]*kG*kG*eT; antisense) [compound 548071] | 55
548036 (e[5mC]*e[5mC]*kA*d[5mC]*dT*dA*dT*dA*dG*dA*dT*dG*d[5mC]*kG*k[5mC]*e[5mC]; antisense) [compound 548036] | 74

Same assay, conditions: PKK mRNA, HepaRG cells, 1,000 nM antisense oligonucleotide; Table 31

Substance | % inhibition [%]
548628 (antisense eG*eT*kA*dT*dG*dG*d[5mC]*dA*dG*dA*dG*d[5mC]*d[5mC]*k[5mC]*k[5mC]*eT) [compound 548628] | 9
548684 (antisense e[5mC]*eA*kA*dG*dA*d[5mC]*d[5mC]*dT*dT*dG*d[5mC]*dT*dT*kG*k[5mC]*e[5mC]) [compound 548684] | 24
548682 (antisense eG*eT*kA*dT*d[5mC]*d[5mC]*d[5mC]*d[5mC]*dT*dT*dT*dT*d[5mC]*kT*kA*eT) [compound 548682] | 0
548680 (antisense eG*e[5mC]*k[5mC]*d[5mC]*d[5mC]*dT*d[5mC]*dT*dT*dA*dA*dA*dT*kA*kG*e[5mC]) [compound 548680] | 9

Same assay, conditions: Table 19; HepaRG cells, electroporation with 1,000 nM antisense oligonucleotide, approximately 24 hours; PKK mRNA by RT-PCR (RTS3454), relative to untreated control cells

Substance | % inhibition [%]
548088 (antisense eA*eA*k[5mC]*dT*dA*dA*dG*dG*dG*dA*d[5mC]*d[5mC]*dA*k[5mC]*k[5mC]*eT) [compound 548088] | 27
548145 (eA*eT*kG*d[5mC]*dA*dA*dA*dG*dA*dA*dG*dA*dT*kG*k[5mC]*e[5mC]; antisense) [compound 548145] | 63
548096 (antisense eG*eT*kG*dT*dT*dT*dG*d[5mC]*dA*dA*dA*d[5mC]*dT*kA*kA*eG) [compound 548096] | 23

Same assay, conditions: Table 20; HepaRG cells, electroporation with 1,000 nM antisense oligonucleotide, approximately 24 hours; PKK mRNA by RT-PCR (RTS3454), relative to untreated control cells

Substance | % inhibition [%]
547885 (e[5mC]*eT*k[5mC]*dT*dG*d[5mC]*d[5mC]*dT*dT*dG*dT*dG*dA*kA*kA*eT; antisense) [compound 547885] | 45
547884 (e[5mC]*eG*kT*dG*dG*d[5mC]*dA*dT*dA*dT*dG*dA*dA*kA*kA*eA; antisense) [compound 547884] | 87
547864 (antisense eT*eT*kG*dA*d[5mC]*dT*d[5mC]*d[5mC]*dT*d[5mC]*dT*d[5mC]*dA*kT*kA*eT) [compound 547864] | 53
547871 (antisense eG*e[5mC]*kT*dA*dA*d[5mC]*d[5mC]*dT*dT*dA*dG*dA*d[5mC]*kA*k[5mC]*eA) [compound 547871] | 96
547879 (antisense eT*e[5mC]*kA*dA*d[5mC]*dA*d[5mC]*dT*dG*d[5mC]*dT*dA*dA*k[5mC]*k[5mC]*eT) [compound 547879] | 69
547848 (antisense eA*eT*kG*dT*d[5mC]*dT*d[5mC]*dG*dA*dT*dG*dG*d[5mC]*kA*kA*eG) [compound 547848] | 93

Same assay, conditions: Table 21 experiment; HepaRG cells, electroporation with 1,000 nM antisense oligonucleotide, approx. 24 hours; PKK mRNA by RT-PCR (RTS3454), relative to untreated control cells

Substance | % inhibition [%]
547777 (antisense eT*eT*kG*d[5mC]*dT*dT*d[5mC]*dT*dT*dG*dG*dA*dG*kG*kT*eG) [compound 547777] | 69
547793 (antisense eA*eT*k[5mC]*d[5mC]*dA*d[5mC]*dA*dG*dG*dA*dA*dA*d[5mC]*kT*kG*eT) [compound 547793] | 16
547789 (antisense eG*eA*kA*dA*dT*dA*dA*dG*dT*dT*dG*d[5mC]*dT*kT*kG*e[5mC]) [compound 547789] | 20
547823 (eA*eG*k[5mC]*dA*dA*d[5mC]*d[5mC]*dA*dA*dA*d[5mC]*d[5mC]*dT*kT*kT*eT; antisense) [compound 547823] | 51

Same assay, conditions: Table 22 experiment; HepaRG cells, electroporation with 1,000 nM antisense oligonucleotide, approx. 24 hours; PKK mRNA by RT-PCR (RTS3454), relative to untreated control cells

Substance | % inhibition [%]
547885 (e[5mC]*eT*k[5mC]*dT*dG*d[5mC]*d[5mC]*dT*dT*dG*dT*dG*dA*kA*kA*eT; antisense) [compound 547885] | 57
547884 (e[5mC]*eG*kT*dG*dG*d[5mC]*dA*dT*dA*dT*dG*dA*dA*kA*kA*eA; antisense) [compound 547884] | 49
547864 (antisense eT*eT*kG*dA*d[5mC]*dT*d[5mC]*d[5mC]*dT*d[5mC]*dT*d[5mC]*dA*kT*kA*eT) [compound 547864] | 73
547871 (antisense eG*e[5mC]*kT*dA*dA*d[5mC]*d[5mC]*dT*dT*dA*dG*dA*d[5mC]*kA*k[5mC]*eA) [compound 547871] | 77
547879 (antisense eT*e[5mC]*kA*dA*d[5mC]*dA*d[5mC]*dT*dG*d[5mC]*dT*dA*dA*k[5mC]*k[5mC]*eT) [compound 547879] | 65
547848 (antisense eA*eT*kG*dT*d[5mC]*dT*d[5mC]*dG*dA*dT*dG*dG*d[5mC]*kA*kA*eG) [compound 547848] | 79

Same assay, conditions: Table 27; HepaRG cells, 1,000 nM antisense oligonucleotide; human PKK mRNA

Substance | % inhibition [%]
548370 (eA*e[5mC]*kG*dA*dA*dG*dT*d[5mC]*dT*d[5mC]*dT*dT*dT*k[5mC]*k[5mC]*eT; antisense) [compound 548370] | 53
548363 (antisense e[5mC]*eA*kG*d[5mC]*dA*dG*dG*d[5mC]*dT*d[5mC]*dA*dA*dA*kG*kT*eG) [compound 548363] | 37
548342 (antisense eG*eG*kA*dA*dG*dA*d[5mC]*dT*dT*d[5mC]*d[5mC]*d[5mC]*dT*k[5mC]*kT*eG) [compound 548342] | 0
548361 (antisense e[5mC]*eT*kT*dA*dT*d[5mC]*dA*dG*dT*d[5mC]*d[5mC]*d[5mC]*dA*kG*kT*e[5mC]) [compound 548361] | 52

Same assay, conditions: Table 28; HepaRG cells, 1,000 nM antisense oligonucleotide; human PKK mRNA

Substance | % inhibition [%]
548477 (eG*e[5mC]*kA*d[5mC]*dG*dA*dG*d[5mC]*dT*dT*dG*d[5mC]*d[5mC]*kT*kG*eT; antisense) [compound 548477] | 26
548518 (antisense e[5mC]*eA*k[5mC]*dA*d[5mC]*dT*dT*dA*d[5mC]*d[5mC]*d[5mC]*d[5mC]*dG*k[5mC]*kT*e[5mC]) [compound 548518] | 12
548485 (eG*eT*kG*dA*d[5mC]*d[5mC]*d[5mC]*dA*dA*dG*dG*dG*dT*k[5mC]*kG*eA; antisense) [compound 548485] | 17
548495 (antisense eT*eT*kG*dT*dG*dA*d[5mC]*d[5mC]*d[5mC]*d[5mC]*d[5mC]*d[5mC]*dA*k[5mC]*k[5mC]*eG) [compound 548495] | 55

Same assay, conditions: Table 30; human PKK mRNA, HepaRG cells, 1,000 nM antisense oligonucleotide

Substance | % inhibition [%]
548442 (antisense eT*eT*k[5mC]*d[5mC]*dT*dA*dT*dA*dA*d[5mC]*dA*dG*dT*kA*kT*e[5mC]) [compound 548442] | 17
